This is an account of results in patent publication US5747065A, “Monoglyceride/lactate ester permeation enhancer for oxybutynin” (priority 1996, dated 1998).

SMILES strings stand for the structures. Read-outs that look alike come from different tables or passages of the source.

For series [1] the following is noted: compared with racemate; devices/gels of Table 4. As for the experimental part:
The drug/permeation enhancer reservoir was prepared by mixing, depending on the formulation, either ethylene vinyl acetate copolymer having a vinyl acetate content of 40 percent ("EVA 40", U.S.I. Chemicals, Illinois) or mineral oil and petrolatum in an internal mixer (Bra Bender type mixer) until the EVA 40 pellets fused. Oxybutynin, glycerol monolaurate and lauryl lactate were then added.
When EVA 40 was used the mixture was blended, cooled and calendered to a 5 mil thick film. This film was then laminated to an acrylic contact adhesive (MSP041991P, 3M) on one side and Medpar® backing (3M) on the opposite side. The laminate was then cut into 2.54 cm^2 circles using a stainless steel punch. Circular pieces of human-epidermis were mounted on horizontal permeation cells with the stratum corneum facing the donor compartment of the cell. The release liner of the system was then removed and the system was centered over the stratum corneum side of the epidermis. A known volume of the receptor solution (0.05M sodium phosphate buffer at pH 6) that had been equilibrated at 35° C. was placed in the receptor compartment. Air bubbles were removed; the cell was capped and placed in a water bath-shaker at 35° C.
When the mineral oil/petrolatum was used, the mixture, containing the drug and permeation enhancers, was blended/mixed and then poured into the donor side of a two-side diffusion cell. […]

The nature of series [2]: Solubility of glycerol monolaurate in lauryl lactate / EVA 40. The series is classed as physicochemical. Particulars: for Wt % GML in solution (free GML): based on GML solubility of 350 mg/g. An excerpt:
The unexpected effects of the specific weight percentages of the components of the permeation enhancer mixture are believed to be due, in part, to the solubility of the monoglyceride in the lactic acid ester. It is known that monoglycerides by themselves are effective permeation enhancers. The enhancement occurs by the solubilization of the monoglyceride in the lipid layer of the skin. The solubilization of the monoglyceride in the lipid layer increases as a function of lactic acid ester concentration. […] Thus, the amount of GML dissolved, ie, free GML, is dictated by and proportional to the lauryl lactate loading in the polymer.

Series [3] is classed as in vivo, human. Particulars: transdermal, coadministered with the permeation enhancing mixture. As for the experimental part: Representative skin permeation rates of oxybutynin through living human skin are in the range of about 5 μg/cm^2 ·hr to about 15 μg/cm^2 ·hr. Therapeutic blood levels can be achieved within approximately 6-10 hours after the initial application, and blood concentrations are maintained with subsequent system applications. The range of desired and achievable system permeation rates of oxybutynin, arriving through the skin from a limited area, is 1-20 mg over a period of 24 hours. The system application is easily adapted for shorter or longer duration treatments, but generally 72 hours is the duration for a single application.

The conditions of series [4]: 25 mg/mL aqueous oxybutynin, 20 μm polybutadiene film, 0.05M isotonic phosphate buffer, cited from earlier work.

As for `CCN(CC)CC#CCOC(=O)[C@](O)(c1ccccc1)C1CCCCC1` [R-oxybutynin], in series [1], the “flux of R- or S-oxybutynin relative to the racemate” value is listed as “approximately equivalent to that of the racemate”.

With `CCN(CC)CC#CCOC(=O)[C@@](O)(c1ccccc1)C1CCCCC1` [S-oxybutynin], the “flux of R- or S-oxybutynin relative to the racemate” value in series [1] is reported as “approximately equivalent to that of the racemate”.

As to `CCCCCCCCCCCC(=O)OCC(O)CO` (centres unmarked) [glycerol monolaurate], the “Wt % GML in solution (free GML)” value in series [2] (12% lauryl lactate in EVA 40) stood at 4.2%; in series [2] (20% lauryl lactate in EVA 40), 7.0%; in series [2] (27% lauryl lactate in EVA 40), 9.5%; in series [2] (30% lauryl lactate in EVA 40), 10.5%. Also, the “solubility in EVA 40 matrix” value in series [2] (in an EVA 40 matrix) is given as “practically insoluble”. Moreover, the “solubility of glycerol monolaurate in lauryl lactate” value in series [2] (in lauryl lactate, solution stirred) was 350 mg/g of solution.

Take `CCN(CC)CC#CCOC(=O)C(O)(c1ccccc1)C1CCCCC1` (centres unmarked) [oxybutynin]: the “time to therapeutic blood levels after the initial application” value in series [3] fell in the range of 6 to 10 h. The “in vitro release rate” value in series [4] (per area) is given as ~10 μg/cm^2 ·hr; in series [4] (through 49 cm^2 area), “approximately 12 mg over 24 hours”.
